Assay results: patent US5116818A, “Method and kit for contraception with GnRH-antagonist” (Medical College of Hampton Roads, priority 1990, dated 1992)

Tested on: cynomolgus monkeys (Macaca fascicularis)
Test: Study III: once-weekly Nal-Glu GnRH-antagonist plus 12 days of norgestimate, three treatment cycles
Assay type: in vivo
Protocol: STUDY III. In this study, which is reported in more detail in Contraception, June, 1990, Vol. 31, No. 6, pp. 623-631, six regularly cycling adult female cynomolgus monkeys (Macaca fascicularis) were housed in individual cages in a controlled environment and checked daily for menstrual flow. Each primate underwent a study entry control menstrual cycle in which alternate day blood samples were taken (under ketamine anesthesia, 10 mg/kg, im) to verify maturation of the dominant follicle, presumed ovulation, and corpus luteum function. The experimental design is depicted in FIG. 1. On menstrual cycle days 2, 9, 16, and 23 (onset of menses =Day 1) three of the monkeys were injected sc with 0.1 mg/kg GnRH-antagonist ([Ac-D2 Nal^1, 4ClDPhe^2, D3 Pal^3, Arg^5,DGlu^6 (AA), DAla^10 ]- GnRH; Nal-Glu) in saline. This dose was selected based on dose-response findings reported in Fertil Seril 1987; 48:480-485. On cycle days 15 to 26, each female was administered 25 μg norgestimate/day orally. This treatment regimen (once-weekly GnRH-antagonist plus 12 days of progestin) was repeated for 2 additional cycles (84 days total). Two of the treated monkeys were ovariectomized at the end of the third treatment cycle to evaluate ovarian follicular morphology. […] Three control monkeys received saline injections and blank (progestin placebo) capsules according to the same regimen. Serum samples were assayed by RIA for estradiol, progesterone, LH, and FSH.

| Compound | completion of follicular maturation, ovulation and corpus luteum function (0.1 mg/kg sc on cycle days 2, 9, 16, 23, judged by serum LH, E2 and P levels) | LH surges or serum progesterone rises (during the intermittent regimen) | serum progesterone (during the treatment cycles) [ng/mL] | transformation of endometrium (sequential norgestimate, histological sections on day 26) |
| --- | --- | --- | --- | --- |
| [Ac-D2 Nal^1, 4ClDPhe^2, D3 Pal^3, Arg^5,DGlu^6 (AA), DAla^10 ]- GnRH [Nal-Glu] | effectively blocked | NO LH surges or serum progesterone rises were detected | < 0.1 |  |
| C#C[C@]1(OC(C)=O)CC[C@H]2[C@@H]3CCC4=CC(=NO)CC[C@@H]4[C@H]3CC[C@@]21CC (mixture of isomers) [norgestimate] |  |  |  | effectively transformed proliferative to secretory endometrium |
